Reference: publication PMC8193794 (Biochemistry, 2020)
Where two headings read alike, the source gives them in different places.

Legend:
[1] = test system: Aβ42; assay: Thioflavin T; format: biochemical; conditions: 37 °C
[2] = test system: Aβ40-HN interactions; conditions: cited from earlier work
[3] = target: Amyloid-β (Aβ) of the conditioned media of A549 and H1299 cells (human (endogenous in A549 and H1299)); assay: ELISA
[4] = target: Amyloid-β (Aβ) of the conditioned media of A549 and H1299 cells (human (endogenous in A549 and H1299)); assay: ELISA; remark: listed apart in the source
[5] = test system: 6E10-bound Aβ complex from A549 conditioned medium; assay: 6E10 capture ELISA of A549 conditioned medium with exogenous IGFBP-3; format: binding, human
[6] = test system: amyloid oligomers and fibrils in H1299 medium; assay: Dot blot of H1299 medium with exogenous IGFBP-3; format: cell-based, human
[7] = test system: H1299 cells; assay: Apoptosis, annexin V ELISA, H1299 cells; format: cell-based, human; conditions: medium immunodepleted of the named component, 48 h
[8] = test system: H1299 cells; assay: MTT assay, H1299 cells; format: cell-based, human; conditions: medium immunodepleted of the named component, 48 h
[9] = test system: A549 cells; assay: Apoptosis, annexin V ELISA, A549 cells; format: cell-based, human; conditions: medium immunodepleted of the named component, 48 h
[10] = test system: A549 human lung cancer cell; conditions: residues 215–232 of IGFBP-3 bind hyaluronan, blocking CD44; cited from earlier work
[11] = test system: A549 cells; assay: MTT assay, A549 cells; format: cell-based, human; conditions: medium immunodepleted of the named component, 48 h
[12] = test system: Aβ40; assay: Thioflavin T; format: biochemical; conditions: 37 °C
[13] = test system: amyloid complexes in A549 conditioned medium; format: binding, human
[14] = test system: Aβ in H1299 medium; assay: Aβ ELISA; format: cell-based, human; conditions: Figure 11B; H1299 medium immunodepleted of the named component
[15] = test system: Aβ in A549 medium; assay: Aβ ELISA; format: cell-based, human; conditions: Figure 11A; A549 medium immunodepleted of the named component
[16] = test system: amyloid oligomers and fibrils in A549 medium; assay: Dot blot of A549 medium with exogenous IGFBP-3; format: cell-based, human; conditions: 400 nM vs 100 nM IGFBP-3, A549 medium
[17] = test system: Aβ / amyloid oligomers and fibrils in A549 medium; assay: Dot blot of immunodepleted A549 medium; format: cell-based, human; conditions: A549 medium immunodepleted of the named component; for anti-A11 oligomer signal after immunodepletion: Figure 9C,F
[18] = test system: HN-Aβ (Aβ40 or Aβ42) complex; assay: ELISA, HN-Aβ binding with increasing AChE, without or with IGFBP-3
[19] = test system: 6E10-bound Aβ complex from H1299 conditioned medium; assay: 6E10 capture ELISA of H1299 conditioned medium with exogenous IGFBP-3; format: binding, human
[20] = target: biotin-humanin; assay: ELISA
[21] = target: biotin-humanin; assay: ELISA; remark: listed apart in the source
[22] = target: Humanin (HN) peptide; assay: ELISA
[23] = target: biotin-humanin; assay: ELISA; remark: listed apart in the source
[24] = target: biotin-humanin; assay: ELISA; remark: listed apart in the source
[25] = test system: Aβ / amyloid oligomers and fibrils in H1299 medium; assay: Dot blot of immunodepleted H1299 medium; format: cell-based, human; conditions: Figure 9B,E; H1299 medium immunodepleted of the named component
[26] = test system: complex between HN and Aβ42; assay: ELISA, IGFBP-3 competition for the HN-Aβ42 complex; format: binding; conditions: AChE (100 nM), HN (100 nM)
[27] = test system: complex between HN and Aβ40; assay: ELISA, IGFBP-3 competition for the HN-Aβ40 complex; format: binding; conditions: AChE (100 nM), HN (100 nM)
[28] = test system: Aβ from H1299 conditioned medium bound to 6E10; assay: 6E10 capture ELISA of H1299 conditioned medium with exogenous HN; format: binding, human
[29] = test system: Aβ from A549 conditioned medium bound to 6E10; assay: 6E10 capture ELISA of A549 conditioned medium with exogenous HN; format: binding, human
[30] = test system: Aβ (12–28) and Aβ (1–16); conditions: cited from earlier work
[31] = Figure 8A, added IGFBP-3, cell line not stated
[32] = Figure 8A, cell line not stated
[33] = Figure 8B, A549 medium, added IGFBP-3

## Aβ42 [reference compound]
[1]; Aβ42 2 μM, 335 min
  aggregation kinetics compared to Aβ40 (ThT): faster aggregation kinetics

## HN (5–15) (GFSCLLLLTSE; Humanin; UniProt Q8IVG9 5-15, looked up, fragment)
[2]
  inhibition of Aβ40-HN interactions: more effective inhibitor of Aβ40-HN interactions than Aβ (17–28)

## HN (5–15, L11S) (GFSCLLSLTSE; Humanin; UniProt Q8IVG9 5-15, looked up, variant L11S)
[2]
  inhibition of Aβ40-HN interactions: reduced the ability of HN (5–15) to compete with the Aβ40-HN interactions

## Humanin (HN) peptide
[3]
  fold decrease of AChE bound to Aβ with added HN: 1.5 fold
  fold increase of the HN signal at 400 nM added HN over no added HN: 2.5 fold
[4]
  fold increase of the HN signal at 400 nM added HN over no added HN: 2.5 fold

## IGFBP-3
[5]; A549 medium, Figure 8A-C
  IGFBP-3 detection in 6E10 complex after adding 400 nM IGFBP-3: did not result in detection of IGFBP-3
[5]; [31]
  A11 (amyloid oligomer) signal fold increase relative to control: ~ 3.9 fold
  LOC (amyloid fibrils) signal fold increase relative to control: ~ 1.7 fold
[5]; [32]
  HN in 6E10 complex upon addition of 50 nM IGFBP-3: diminished
  HN in 6E10 complex upon addition of 100 nM IGFBP-3: completely depleted
[5]; [33]
  A11 signal fold increase relative to control without IGFBP-3: ~ 3.9 fold
  LOC signal fold increase relative to control with no IGFBP-3: ~ 1.59 fold
[6]; 100 nM IGFBP-3 added, H1299 medium (no increase)
  anti-LOC signal, cell media in which increase was observed: only in the A549 medium
[6]; 400 nM vs 100 nM IGFBP-3, H1299 medium
  further effect of 400 nM IGFBP-3 on A11/LOC signals: did not have any further effect
[7]
  apoptosis after treatment with immunodepleted medium: no effect
[8]
  cell viability after treatment with immunodepleted medium: no effect
[9]
  apoptosis after treatment with immunodepleted medium: reduced apoptosis
[10]
  A549 cell viability: reducing A549 human lung cancer cell viability
[11]
  cell viability after treatment with immunodepleted medium: increased the A549 cell viability
[12]; Aβ40 2 μM, HN 2 μM, IGFBP-3 2 μM, 335 min, no AChE
  effect of 2 μM IGFBP-3 on HN block of Aβ40 aggregation (ThT): reduced the ability of HN to block aggregation of Aβ, but only partially
[12]; Aβ40 2 μM, HN 2 μM, IGFBP-3 6 μM, 335 min, no AChE
  effect of 6 μM IGFBP-3 on HN block of Aβ40 aggregation (ThT): completely abolished the ability of HN to block the aggregation of Aβ
[12]; Aβ40, AChE, HN each 2 μM, IGFBP-3 6 μM
  Aβ40 aggregation with 6 μM IGFBP-3 in presence of AChE and HN (ThT): aggregation kinetics comparable to those of Aβ incubated with only AChE
[13]
  detection in complex with any of the antibodies tested (6E10, 4G8, A11, LOC): No IGFBP-3 was detected
[14]
  effect of immunodepletion on total Aβ or oligomer: No effects
[15]
  effect of immunodepletion on total Aβ or oligomer: No effects
[16]
  further effect of 400 nM IGFBP-3 on A11/LOC signals: did not have any further effect
[17]
  anti-A11 oligomer signal after immunodepletion: No difference
[18]; 2 μM IGFBP-3, HN and Aβ 0.2 μM
  HN-Aβ binding signal: completely abolished the signal
[19]; Figure 8A-C
  IGFBP-3 detection in 6E10 complex after adding 400 nM IGFBP-3: did not result in detection of IGFBP-3
[19]; Figure 8C
  LOC signal with added IGFBP-3: no signal was observed
[19]; Figure 8C, added IGFBP-3
  A11 signal fold increase relative to control with no IGFBP-3: ~ 2.5 fold
[1]; Aβ42 2 μM, HN 2 μM, IGFBP-3 2 μM, 335 min, no AChE
  effect of 2 μM IGFBP-3 on HN block of Aβ42 aggregation (ThT): reduced the ability of HN to block aggregation of Aβ, but only partially
[1]; Aβ42 2 μM, HN 2 μM, IGFBP-3 6 μM, 335 min, no AChE
  effect of 6 μM IGFBP-3 on HN block of Aβ42 aggregation (ThT): completely abolished the ability of HN to block the aggregation of Aβ
[1]; Aβ42, AChE, HN each 2 μM, IGFBP-3 6 μM
  Aβ42 aggregation with 6 μM IGFBP-3 in presence of AChE and HN (ThT): aggregation kinetics comparable to those of Aβ incubated with only AChE

## Recombinant human insulin-like growth factor binding protein-3 (IGFBP-3) (from UniProt P17936 28-291) (natural protein)
[20]
  IC50: 39 nM
[21]
  IC50: 58 nM
[22]
  percent decrease of the biotinylated Aβ signal on HN at 0.2 μM IGFBP-3: 50%
[23]
  IC50: 93 nM
[24]
  IC50: 74 nM

B1: AChE (protein)
chain: EGREDAELLVTVRGGRLRGIRLKTPGGPVSAFLGIPFAEPPMGPRRFLPPEPKQPWSGVVDATTFQSVCYQYVDTLYPGFEGTEMWNPNRELSEDCLYLNVWTPYPRPTSPTPVLVWIYGGGFYSGASSLDVYDGRFLVQAERTVLVSMNYRVGAFGFLALPGSREAPGNVGLLDQRLALQWVQENVAAFGGDPTSVTLFGESAGAASVGMHLLSPPSRGLFHRAVLQSGAPNGPWATVGMGEARRRATQLAHLVGCPPGGTGGNDTELVACLRTRPAQVLVNHEWHVLPQESVFRFSFVPVVDGDFLSDTPEALINAGDFHGLQVLVGVVKDEGSYFLVYGAPGFSKDNESLISRAEFLAGVRVGVPQVSDLAAEAVVLHYTDWLHPEDPARLREALSDVVGDHNVVCPVAQLAGRLAAQGARVYAYVFEHRASTLSWPLWMGVPHGYEIEFIFGIPLDPSRNYTAEEKIFAQRLMRYWANFARTGDPNEPRDPKAPQWPPYTAGAQQYVSLDLRPLEVRRGLRAQACAFWNRFLPKLLSATDTLDEAERQWKAEFHRWSSYMVHWKNQFDHYSKQDRCSDL
[25]
  Aβ detected with anti-6E10 after immunodepletion: no change
[7]
  apoptosis after treatment with immunodepleted medium: no effect
[8]
  cell viability after treatment with immunodepleted medium: no effect
[9]
  apoptosis after treatment with immunodepleted medium: reduced apoptosis
[26]
  effect of added AChE on IGFBP-3 competition with Aβ42 for HN: no difference
[27]
  effect of added AChE on IGFBP-3 competition with Aβ40 for HN: no difference
[11]
  cell viability after treatment with immunodepleted medium: increased the A549 cell viability
[12]; Aβ40 2 μM, AChE 2 μM, 335 min
  aggregation of Aβ40 with AChE (ThT): increased aggregation with changes in both the lag phase and the final ThT fluorescence value
[14]
  effect of immunodepletion on total Aβ or oligomer: No change
[17]; Figure 9B,E
  Aβ detected with anti-6E10 after immunodepletion: decreased the amount of Aβ
[17]
  anti-A11 oligomer signal after immunodepletion: No difference
[28]
  AChE bound to Aβ (6E10 capture): Barely detectable levels
[18]; 0.2 or 2 μM IGFBP-3 present
  change in signal with increasing AChE in presence of IGFBP-3: no change in the signal
[29]
  AChE bound to Aβ (6E10 capture): detectable levels
[1]; Aβ42 2 μM, AChE 2 μM, 335 min
  aggregation of Aβ42 with AChE (ThT): increased aggregation with changes in both the lag phase and the final ThT fluorescence value
[30]
  binding to Aβ fragments: binds to Aβ (12–28) and the Aβ (1–16) peptide
